{
  "source": "patent US10577349B2",
  "about": "(Sanford Burnham Prebys Medical Discovery Institute, priority 2015, dated 2020)",
  "key": {"[1]": {"assay": "Aqueous Solubility in 1xPBS, pH 7.4", "format": "physicochemical", "conditions": "pH 7.4, aqueous buffer"}, "Compound 38 PK Study": {"assay": "Compound 38 PK Study", "format": "in vivo, C57Bl/6J mice", "conditions": "male, C57Bl/6J, mouse, plasma", "method": "Method: Fasted male C57Bl/6J mice were dosed with a 1 mg/mL solution of Compound 38 in 10% DMSO, 10% Tween-80 and 80% water by intravenous injection (2 mg/kg, as a 0.4 mg/mL solution), oral gavage (10 mg/kg as a 1 mg/mL solution) or intraperitoneal injection (10 mg/kg as a 1 mg/mL solution). Plasma was collected at various time points and analyzed by LC/MS/MS to determine compound levels."}, "[2]": {"tested_on": "WM1346 (NRAS mutant) cell line", "assay": "Reverse phase protein array analysis (RPPA), WM1346", "format": "cell-based, human", "conditions": "WM1346, 1 μM, 24 h", "method": "UACC903 and WM1346 cells were treated with DMSO (controls) or 1 μM Compound 38 for 24 h in triplicate. Cells were lysed with lysis buffer (1% Triton X-100, 50 mM HEPES, pH 7.4, 150 mM NaCl, 1.5 mM MgCl2, 1 mM EGTA, 100 mM NaF, 10 mM Na pyrophosphate, 1 mM Na3VO4, 10% glycerol, with freshly added protease and phosphatase inhibitors) and centrifuged at 13,000 g for 20 minutes. Denatured protein lysates containing the same amount of protein were then subjected to RPPA analysis at the RPPA Core Facility, Md. Anderson Cancer Center, as previously described (Tibes. R., et al. Reverse phase protein array: validation of a novel proteomic technology and utility for analysis of primary leukemia specimens and hematopoietic stem cells. Molecular cancer therapeutics 5, 2512-2521 (2006)),\n(§1) A reverse phase protein array (RPPA) analysis of BRAF- and NRAS-mutant melanomas was performed to identify protein networks affected by Compound 38 (Table 4)."}, "[3]": {"tested_on": "UACC903 and A375 cell lines", "assay": "Western blot validation of RPPA data", "format": "cell-based, human", "method": "Cells were rinsed with PBS and lysed in culture plates with lysis buffer (50 mM Tris-HCl, pH 7.4, 150 mM NaCl, 1% NP-40, 1 mM EDTA, 10 μg/ml aprotinin, 1 μg/ml pepstatin A, 10 μg/ml leupeptin, 1 mM phenylmethylsulfonyl fluoride, and 1 mM sodium orthovanadate). Protein concentration was determined using Coomassie Plus Protein Assay Reagent (Thermo Scientific). Equal amounts of cell lysate proteins (50 μg) were resolved by SDS-PAGE and transferred to polyvinylidene difluoride membranes (PerkinElmer Life Sciences). Membranes were blocked with 5% BSA/TBST for 1 h and incubated with primary antibodies for 1 h at room temperate or overnight at 4° C., with shaking. Following three TBST washes, membranes were incubated for 1 h at room temperature with goat anti-rabbit Alexa Fluor 680 F(ab′)2 or goat anti-mouse IRDye 800 F(ab′)2 diluted 1:10,000. Bound antibodies were detected using the Odyssey Infrared Imaging System (LiCor Biosciences), or by exposing them to X-ray blue film.\nas §1"}, "[4]": {"tested_on": "parental and BRAFi-resistant melanoma cultures (A375, WM793, Lu1205)", "assay": "2D growth and colony-forming efficiency in parental and BRAFi-resistant melanoma cultures", "format": "cell-based, human", "conditions": "parental (sensitive) and BRAFi-resistant cultures", "method": "For the colony formation assay, cells were plated in triplicate at 500 cells/well in 6-well plates and grown for 16 h before compounds were added for 1-2 weeks, depending on cell line. Colonies were stained with Accustain Crystal Violet solution (Sigma-Aldrich) for 30 min. Plates were rinsed with water, and colonies (>50 cells per clone) were counted. Colony formation efficiency was calculated relative to the number of colonies in control (DMSO)-treated wells. For soft agar assays, melanoma cells were mixed with agar at a final concentration of 0.35% and layered on top of 0.7% agar in 6-well plates. Media supplemented with different compounds was added to plates and changed once per week. After 4 weeks, colonies were counted in 10 random high-power fields.\nTo confirm the effect of Compound 38 on the eIF4F complex in BRAFi resistant cultures on neoplastic growth, Compound 38 effectiveness on their two-dimensional (2D) growth in vitro was assessed. […] Parental and BRAFi-resistant NF1-mutant melanomas (A) were monitored for their response to Compound 38 at the indicated concentrations and for their ability to form CFE (B) (A375: FIG. 16A and FIG. 16B, WM793: FIG. 17A and FIG. 17B, Lu1205: FIG. 18A and FIG. 18B). Effectiveness of Compound 38 in NF1-mutant melanoma was further confirmed in primary cultures (FIG. 19A and FIG. 19B)."}, "[5]": {"tested_on": "Nras^Q61K/Ink4a^−/− melanoma tumors", "assay": "Inducible Nras^Q61K/Ink4a^−/− genetic melanoma model", "format": "in vivo, mice", "conditions": "0.5 mg/kg intraperitoneal twice a week from week 11; compared with control nontreated group", "method": "In vivo, Compound 38 was evaluated using an inducible Nras^Q61K/Ink4a^−/− genetic model in which melanoma tumors emerge within 16 to 20 weeks (FIG. 20). Administration of Compound 38 only, starting 11 weeks after genetic inactivation of Ink4a and induction of […] (about 10-14 days prior to tumor appearance), delayed tumor onset (from 20-26 weeks), and reduced tumor incidence, by 50%, compared with the control nontreated group. Mice of the Nras^Q61K:Ink4a^−/− genotype or WT mice (38-40 mice for each genotype) were administered vehicle or Compound 38 at 0.5 mg/kg by intraperitoneal injection twice a week starting at week 11 after Nras^Q61K activation and Ink4a inactivation. Tumor development was monitored twice per week. Latency and frequency of melanoma development over the 21-week treatment period (weeks 11-32) are shown."}},
  "data": [
    {"smiles": "O=C(/C=C/c1cncc(F)c1)c1c(-c2ccccc2)c2cc(Cl)ccc2[nH]c1=O", "note": "[Compound 38, 6-Chloro-3-[3-(5-fluoro-pyridin-3-yl)-acryloyl]-4-phenyl-1H-quinolin-2-one]", "values": [
      {"measurement": "solubility", "setting": "[1]", "result": 5.6, "unit": "µg/mL"},
      {"measurement": "half-life", "setting": "Compound 38 PK Study", "result": 2.95, "unit": "h"},
      {"measurement": "clearance", "setting": "Compound 38 PK Study; IV 2 mg/kg", "result": 67, "unit": "mL/min/kg"},
      {"measurement": "bioavailability", "setting": "Compound 38 PK Study; oral gavage 10 mg/kg", "result": 20, "unit": "%"},
      {"measurement": "Ratio [Compound 38/DMSO] A-Raf", "setting": "[2]", "result": 0.90},
      {"measurement": "Ratio [Compound 38/DMSO] AR", "setting": "[2]", "result": 0.72},
      {"measurement": "Ratio [Compound 38/DMSO] ATM", "setting": "[2]", "result": 0.82},
      {"measurement": "Ratio [Compound 38/DMSO] ATR", "setting": "[2]", "result": 0.76},
      {"measurement": "Ratio [Compound 38/DMSO] BRCA2", "setting": "[2]", "result": 0.90},
      {"measurement": "Ratio [Compound 38/DMSO] C-Raf", "setting": "[2]", "result": 0.93},
      {"measurement": "Ratio [Compound 38/DMSO] Chk1", "setting": "[2]", "result": 0.94},
      {"measurement": "Ratio [Compound 38/DMSO] Ets-1", "setting": "[2]", "result": 0.91},
      {"measurement": "Ratio [Compound 38/DMSO] GCN5L2", "setting": "[2]", "result": 0.86},
      {"measurement": "Ratio [Compound 38/DMSO] INPP4b", "setting": "[2]", "result": 0.88},
      {"measurement": "Ratio [Compound 38/DMSO] MSH6", "setting": "[2]", "result": 0.78},
      {"measurement": "Ratio [Compound 38/DMSO] PI3K-p85", "setting": "[2]", "result": 0.96},
      {"measurement": "Ratio [Compound 38/DMSO] PI3K-p110-alpha", "setting": "[2]", "result": 0.95},
      {"measurement": "Ratio [Compound 38/DMSO] Rad51", "setting": "[2]", "result": 0.78},
      {"measurement": "Ratio [Compound 38/DMSO] Raptor", "setting": "[2]", "result": 0.87},
      {"measurement": "Ratio [Compound 38/DMSO] Rictor_pT1135", "setting": "[2]", "result": 0.91},
      {"measurement": "Ratio [Compound 38/DMSO] S6_pS235_S236", "setting": "[2]", "result": 0.70},
      {"measurement": "Ratio [Compound 38/DMSO] S6_pS240_S244", "setting": "[2]", "result": 0.65},
      {"measurement": "Ratio [Compound 38/DMSO] Stat5a", "setting": "[2]", "result": 0.67},
      {"measurement": "Ratio [Compound 38/DMSO] Tuberin", "setting": "[2]", "result": 0.68},
      {"measurement": "Ratio [Compound 38/DMSO] YB1", "setting": "[2]", "result": 0.69},
      {"measurement": "Ratio [Compound 38/DMSO] c-Kit", "setting": "[2]", "result": 0.94},
      {"measurement": "Ratio [Compound 38/DMSO] c-Myc", "setting": "[2]", "result": 0.80},
      {"measurement": "Ratio [Compound 38/DMSO] mTOR", "setting": "[2]", "result": 0.71},
      {"measurement": "Ratio [Compound 38/DMSO] mTOR_pS2448", "setting": "[2]", "result": 0.76},
      {"measurement": "Ratio [Compound 38/DMSO] p70-S6K_pT389", "setting": "[2]", "result": 0.81},
      {"measurement": "Western blot: phosphorylation of S6, mTOR, P70S6K, TSC2 and 4E-BP1", "setting": "[3]", "result": "dose dependent inhibitory effects"},
      {"measurement": "Growth in 2D and colony-forming efficiency (CFE)", "setting": "[4]", "result": "effectively attenuated in both parental (sensitive) and resistant cultures"},
      {"measurement": "reduced tumor incidence", "setting": "[5]", "result": 50, "unit": "%"},
      {"measurement": "tumor onset, delayed (from - to)", "setting": "[5]", "result": "20-26 weeks"}
    ]}
  ]
}
